Measured values reported in PubChem BioAssay (NCI).
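Step 1: Grow cells in 96-well plates. Step 2: Expose to compound for 48 hours at 5 concentrations. Step 3: Interpolate endpoints linearly; if unreached, use highest concentration. GI50 = concentration required for 50% inhibition of growth. The concentration for full growth arrest is given as TGI.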

Tests used:
Assay in all cases: growth of human tumour cells (NCI), 48 h
786-0 renal = system: 786-0 renal
A549 NSCLC = system: A549 NSCLC
ACHN renal = system: ACHN renal
BT-549 breast = system: BT-549 breast
CAKI-1 renal = system: CAKI-1 renal
CCRF-CEM leukemia = system: CCRF-CEM leukemia
COLO 205 colon = system: COLO 205 colon
DU-145 prostate = system: DU-145 prostate
EKVX NSCLC = system: EKVX NSCLC
HCC-2998 colon = system: HCC-2998 colon
HCT-116 colon = system: HCT-116 colon
HCT-15 colon = system: HCT-15 colon
HL-60(TB) leukemia = system: HL-60(TB) leukemia
HOP-62 NSCLC = system: HOP-62 NSCLC
HT29 colon = system: HT29 colon
IGROV1 ovarian = system: IGROV1 ovarian
K-562 leukemia = system: K-562 leukemia
KM12 colon = system: KM12 colon
LOX IMVI melanoma = system: LOX IMVI melanoma
M14 melanoma = system: M14 melanoma
MALME-3M melanoma = system: MALME-3M melanoma
MCF7 breast = system: MCF7 breast
MDA-MB-231 breast = system: MDA-MB-231 breast
MDA-MB-435 = system: MDA-MB-435
MOLT-4 leukemia = system: MOLT-4 leukemia
NCI-H226 lung = system: NCI-H226 lung
NCI-H23 lung = system: NCI-H23 lung
NCI-H460 lung = system: NCI-H460 lung
NCI-H522 lung = system: NCI-H522 lung
NCI/ADR-RES ovarian = system: NCI/ADR-RES ovarian
OVCAR-3 ovarian = system: OVCAR-3 ovarian
OVCAR-4 ovarian = system: OVCAR-4 ovarian
OVCAR-5 ovarian = system: OVCAR-5 ovarian
OVCAR-8 ovarian = system: OVCAR-8 ovarian
PC-3 prostate = system: PC-3 prostate
RPMI-8226 leukemia = system: RPMI-8226 leukemia
SF-268 CNS = system: SF-268 CNS
SF-295 CNS = system: SF-295 CNS
SF-539 CNS = system: SF-539 CNS
SK-MEL-2 melanoma = system: SK-MEL-2 melanoma
SK-MEL-5 melanoma = system: SK-MEL-5 melanoma
SK-OV-3 ovarian = system: SK-OV-3 ovarian
SN12C renal = system: SN12C renal
SNB-19 CNS = system: SNB-19 CNS
SNB-75 CNS = system: SNB-75 CNS
SR leukemia = system: SR leukemia
T-47D breast = system: T-47D breast
TK-10 renal = system: TK-10 renal
U251 CNS = system: U251 CNS
UACC-257 melanoma = system: UACC-257 melanoma
UACC-62 melanoma = system: UACC-62 melanoma
UO-31 renal = system: UO-31 renal

COc1cc(C(=O)/C=C/c2c(-c3cccs3)nc3sccn23)cc(OC)c1OC
GI50 (786-0 renal): 1530 nM
TGI (786-0 renal): 5940 nM
GI50 (A549 NSCLC): 1580 nM
TGI (A549 NSCLC): 5300 nM
GI50 (ACHN renal): 2160 nM
TGI (ACHN renal): 7520 nM
GI50 (BT-549 breast): 1790 nM
TGI (BT-549 breast): 11400 nM
GI50 (CAKI-1 renal): 1790 nM
TGI (CAKI-1 renal): 17000 nM
GI50 (CCRF-CEM leukemia): 565 nM
TGI (CCRF-CEM leukemia): > 100000 nM
GI50 (COLO 205 colon): 1650 nM
TGI (COLO 205 colon): 3320 nM
GI50 (DU-145 prostate): 518 nM
TGI (DU-145 prostate): 1890 nM
GI50 (EKVX NSCLC): 2410 nM
TGI (EKVX NSCLC): > 100000 nM
GI50 (HCC-2998 colon): 814 nM
TGI (HCC-2998 colon): 2000 nM
GI50 (HCT-116 colon): 1090 nM
TGI (HCT-116 colon): 3990 nM
GI50 (HCT-15 colon): 839 nM
TGI (HCT-15 colon): 3850 nM
GI50 (HL-60(TB) leukemia): 1190 nM
TGI (HL-60(TB) leukemia): 4460 nM
GI50 (HOP-62 NSCLC): 2410 nM
TGI (HOP-62 NSCLC): 6440 nM
GI50 (HT29 colon): 1120 nM
TGI (HT29 colon): 3960 nM
GI50 (IGROV1 ovarian): 462 nM
TGI (IGROV1 ovarian): 1370 nM
GI50 (K-562 leukemia): 445 nM
TGI (K-562 leukemia): > 100000 nM
GI50 (KM12 colon): 342 nM
TGI (KM12 colon): 1090 nM
GI50 (LOX IMVI melanoma): 1060 nM
TGI (LOX IMVI melanoma): 2500 nM
GI50 (M14 melanoma): 2510 nM
TGI (M14 melanoma): 27200 nM
GI50 (MALME-3M melanoma): 3280 nM
TGI (MALME-3M melanoma): 43400 nM
GI50 (MCF7 breast): 724 nM
TGI (MCF7 breast): 88400 nM
GI50 (MDA-MB-231 breast): 1550 nM
TGI (MDA-MB-231 breast): 9270 nM
GI50 (MDA-MB-435): 592 nM
TGI (MDA-MB-435): 60100 nM
GI50 (MOLT-4 leukemia): 1020 nM
TGI (MOLT-4 leukemia): 4450 nM
GI50 (NCI-H226 lung): 2460 nM
TGI (NCI-H226 lung): 7460 nM
GI50 (NCI-H23 lung): 814 nM
TGI (NCI-H23 lung): 6420 nM
GI50 (NCI-H460 lung): 600 nM
TGI (NCI-H460 lung): 1990 nM
GI50 (NCI-H522 lung): 260 nM
TGI (NCI-H522 lung): 866 nM
GI50 (NCI/ADR-RES ovarian): 464 nM
TGI (NCI/ADR-RES ovarian): 4060 nM
GI50 (OVCAR-3 ovarian): 1010 nM
TGI (OVCAR-3 ovarian): 2730 nM
GI50 (OVCAR-4 ovarian): 1970 nM
TGI (OVCAR-4 ovarian): 53200 nM
GI50 (OVCAR-5 ovarian): 4740 nM
TGI (OVCAR-5 ovarian): 27800 nM
GI50 (OVCAR-8 ovarian): 651 nM
TGI (OVCAR-8 ovarian): 3700 nM
GI50 (PC-3 prostate): 731 nM
TGI (PC-3 prostate): 6170 nM
GI50 (RPMI-8226 leukemia): 448 nM
TGI (RPMI-8226 leukemia): 3680 nM
GI50 (SF-268 CNS): 1320 nM
TGI (SF-268 CNS): 6300 nM
GI50 (SF-295 CNS): 955 nM
TGI (SF-295 CNS): 9940 nM
GI50 (SF-539 CNS): 1740 nM
TGI (SF-539 CNS): 4260 nM
GI50 (SK-MEL-2 melanoma): 319 nM
TGI (SK-MEL-2 melanoma): 1280 nM
GI50 (SK-MEL-5 melanoma): 1060 nM
TGI (SK-MEL-5 melanoma): 2490 nM
GI50 (SK-OV-3 ovarian): 2150 nM
TGI (SK-OV-3 ovarian): 6150 nM
GI50 (SN12C renal): 1920 nM
TGI (SN12C renal): 10800 nM
GI50 (SNB-19 CNS): 2140 nM
TGI (SNB-19 CNS): 13500 nM
GI50 (SNB-75 CNS): 1280 nM
TGI (SNB-75 CNS): 8160 nM
GI50 (SR leukemia): 264 nM
TGI (SR leukemia): 2470 nM
GI50 (T-47D breast): 789 nM
TGI (T-47D breast): 4710 nM
GI50 (TK-10 renal): 2080 nM
TGI (TK-10 renal): > 100000 nM
GI50 (U251 CNS): 904 nM
TGI (U251 CNS): 5340 nM
GI50 (UACC-257 melanoma): 1140 nM
TGI (UACC-257 melanoma): 3710 nM
GI50 (UACC-62 melanoma): 1380 nM
TGI (UACC-62 melanoma): 3720 nM
GI50 (UO-31 renal): 784 nM
TGI (UO-31 renal): 4700 nM
